Key:
[1] = system: A-431; test: Antiproliferative activity against human A431 cells assessed as growth inhibition after 72 hrs by SRB assay; format: functional, cell-based; conditions: A-431, 72 h
[2] = system: NCI-H1975; test: Antiproliferative activity against gefitinib-resistant human NCI-H1975 cells assessed as growth inhibition after 72 hrs by SRB assay; format: functional, cell-based; conditions: NCI-H1975, 72 h
[3] = molecular target: Epidermal growth factor receptor (Homo sapiens, UniProt P00533); test: Inhibition of wild type EGFR domain (unknown origin) expressed in baculovirus expression system using Poly(Glu:Tyr)4:1 substrate after 60 mins by ELISA
[4] = molecular target: Epidermal growth factor receptor (Homo sapiens, UniProt P00533, L858R/T790M); test: Inhibition of EGFR T790M/L858R double mutant (unknown origin) expressed in baculovirus expression system using Poly(Glu:Tyr)4:1 substrate after 60 mins by ELISA
Sequence of Epidermal growth factor receptor (Homo sapiens, UniProt P00533, L858R/T790M) (P00533 25-1210 T790M/L858R limits assumed): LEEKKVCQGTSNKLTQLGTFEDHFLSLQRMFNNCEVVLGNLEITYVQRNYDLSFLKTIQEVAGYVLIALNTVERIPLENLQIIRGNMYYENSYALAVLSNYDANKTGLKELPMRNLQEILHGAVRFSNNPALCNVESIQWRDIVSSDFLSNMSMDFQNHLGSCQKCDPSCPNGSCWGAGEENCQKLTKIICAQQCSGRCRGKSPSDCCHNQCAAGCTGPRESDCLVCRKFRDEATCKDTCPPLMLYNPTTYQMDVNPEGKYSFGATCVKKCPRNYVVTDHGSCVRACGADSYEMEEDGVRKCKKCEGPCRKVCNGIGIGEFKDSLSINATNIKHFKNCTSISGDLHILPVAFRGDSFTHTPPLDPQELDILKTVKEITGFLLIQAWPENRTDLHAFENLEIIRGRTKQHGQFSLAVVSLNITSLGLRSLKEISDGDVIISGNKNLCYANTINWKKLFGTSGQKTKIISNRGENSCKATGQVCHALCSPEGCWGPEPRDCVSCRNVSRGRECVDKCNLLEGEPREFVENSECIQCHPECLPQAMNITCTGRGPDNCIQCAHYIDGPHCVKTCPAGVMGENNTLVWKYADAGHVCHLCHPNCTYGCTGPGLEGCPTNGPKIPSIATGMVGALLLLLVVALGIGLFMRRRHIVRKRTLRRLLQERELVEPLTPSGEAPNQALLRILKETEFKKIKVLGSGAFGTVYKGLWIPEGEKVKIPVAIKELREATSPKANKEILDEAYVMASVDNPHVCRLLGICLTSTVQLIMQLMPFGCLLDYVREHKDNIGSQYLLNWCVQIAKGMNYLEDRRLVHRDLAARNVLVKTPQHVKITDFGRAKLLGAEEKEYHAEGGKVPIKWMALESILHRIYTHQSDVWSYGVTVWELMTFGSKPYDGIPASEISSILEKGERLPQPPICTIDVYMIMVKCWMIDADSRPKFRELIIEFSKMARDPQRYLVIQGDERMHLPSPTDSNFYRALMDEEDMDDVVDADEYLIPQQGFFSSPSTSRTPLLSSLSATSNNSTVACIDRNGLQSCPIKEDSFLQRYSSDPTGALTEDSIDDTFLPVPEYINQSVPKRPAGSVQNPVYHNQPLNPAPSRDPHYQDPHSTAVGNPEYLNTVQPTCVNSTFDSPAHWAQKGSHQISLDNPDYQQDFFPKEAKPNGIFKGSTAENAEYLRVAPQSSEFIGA

Sequence of Epidermal growth factor receptor (Homo sapiens, UniProt P00533) (P00533 whole entry, the tested form may be a part): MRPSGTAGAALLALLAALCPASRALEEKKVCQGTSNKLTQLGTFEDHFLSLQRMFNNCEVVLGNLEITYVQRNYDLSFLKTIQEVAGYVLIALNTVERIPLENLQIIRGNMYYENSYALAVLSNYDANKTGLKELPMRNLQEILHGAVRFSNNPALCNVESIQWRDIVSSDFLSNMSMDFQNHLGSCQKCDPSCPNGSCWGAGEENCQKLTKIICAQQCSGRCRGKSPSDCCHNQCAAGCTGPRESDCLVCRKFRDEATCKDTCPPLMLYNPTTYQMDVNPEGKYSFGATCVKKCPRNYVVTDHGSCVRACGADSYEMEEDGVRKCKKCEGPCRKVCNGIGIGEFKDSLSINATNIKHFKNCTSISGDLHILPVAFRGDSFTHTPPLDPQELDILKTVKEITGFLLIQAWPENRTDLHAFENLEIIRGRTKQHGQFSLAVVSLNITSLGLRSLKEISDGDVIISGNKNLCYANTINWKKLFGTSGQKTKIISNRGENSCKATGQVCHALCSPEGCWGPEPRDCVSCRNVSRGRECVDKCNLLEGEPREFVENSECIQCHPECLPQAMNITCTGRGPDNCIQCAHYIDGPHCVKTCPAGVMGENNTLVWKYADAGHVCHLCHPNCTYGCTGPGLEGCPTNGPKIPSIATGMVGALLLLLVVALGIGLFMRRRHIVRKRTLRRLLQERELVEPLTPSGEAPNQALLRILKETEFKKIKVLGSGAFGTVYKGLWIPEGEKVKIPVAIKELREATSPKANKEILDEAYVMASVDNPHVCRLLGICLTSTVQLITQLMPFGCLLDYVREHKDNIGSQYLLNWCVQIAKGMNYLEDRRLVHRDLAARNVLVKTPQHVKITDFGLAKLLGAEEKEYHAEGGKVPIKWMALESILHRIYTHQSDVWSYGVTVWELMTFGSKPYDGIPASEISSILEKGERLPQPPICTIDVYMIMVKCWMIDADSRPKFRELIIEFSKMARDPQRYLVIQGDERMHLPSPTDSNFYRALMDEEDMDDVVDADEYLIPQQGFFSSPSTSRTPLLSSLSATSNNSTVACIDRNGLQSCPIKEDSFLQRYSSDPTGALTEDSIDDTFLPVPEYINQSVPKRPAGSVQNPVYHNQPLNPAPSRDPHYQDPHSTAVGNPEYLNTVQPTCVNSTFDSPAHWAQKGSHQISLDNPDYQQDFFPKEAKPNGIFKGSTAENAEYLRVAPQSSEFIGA

| Structure (SMILES) | IC50 [1] [µM] | IC50 [2] [µM] | IC50 [3] [µM] | IC50 [4] [µM] |
| --- | --- | --- | --- | --- |
| O=C(/C=C/CN1CCC(F)CC1)Nc1cc2c(Nc3ccc(F)c(Cl)c3)ncnc2s1 | 2.4 | 10.8 | – | – |
| C/C=C(\C)C(=O)Nc1cc2c(Nc3ccc(F)c(Cl)c3)ncnc2s1 | 24.2 | > 100 | 6.41 | > 10 |
| CN(C)CCCN(C)CC(=O)Nc1cc2c(Nc3ccc(F)c(Cl)c3)ncnc2s1 | 2.38 | 19.1 | 5.22 | 1.7 |
| CN(C)CCCC(=O)Nc1cc2c(Nc3ccc(F)c(Cl)c3)ncnc2s1 | 3.48 | 29.6 | 0.799 | 1.8 |
| O=C(CN1CCC(CCO)CC1)Nc1cc2c(Nc3ccc(F)c(Cl)c3)ncnc2s1 | 9.48 | 83.4 | 0.542 | > 10 |
| COC(CN(C)C/C=C/C(=O)Nc1cc2c(Nc3ccc(F)c(Cl)c3)ncnc2s1)OC | 0.43 | 4.89 | 0.002 | 0.061 |
| CN(C)C/C=C/C(=O)Nc1cc2c(Nc3ccc(F)c(Cl)c3)ncnc2s1 | 0.25 | 10.1 | 0.024 | 0.324 |
| CCN1CCN(C/C=C/C(=O)Nc2cc3c(Nc4ccc(F)c(Cl)c4)ncnc3s2)CC1 | 4.37 | 20.6 | 0.035 | 0.004 |
| CN1CCN(C/C=C/C(=O)Nc2cc3c(Nc4ccc(F)c(Cl)c4)ncnc3s2)CC1 | 4.47 | 34.8 | 0.124 | 0.003 |
| O=C(/C=C/CNC1CCOCC1)Nc1cc2c(Nc3ccc(F)c(Cl)c3)ncnc2s1 | 2.21 | 7.05 | 0.02 | 0.032 |
| O=C(/C=C/CN1CCC(F)(F)C1)Nc1cc2c(Nc3ccc(F)c(Cl)c3)ncnc2s1 | 3.69 | 15.8 | 0.028 | 1.76 |
| O=C(Nc1cc2c(Nc3ccc(F)c(Cl)c3)ncnc2s1)C1CCCC1 | 14.9 | 39.3 | > 10 | > 10 |
| CN1CCN(CC(=O)Nc2cc3c(Nc4ccc(F)c(Cl)c4)ncnc3s2)CC1 | 1.7 | 21.5 | 3.4 | > 10 |
| O=C(/C=C/CN1CC2(COC2)C1)Nc1cc2c(Nc3ccc(F)c(Cl)c3)ncnc2s1 | 0.86 | 5.54 | 0.007 | 0.043 |
| O=C(/C=C/CN1CC(O)C1)Nc1cc2c(Nc3ccc(F)c(Cl)c3)ncnc2s1 | 1.65 | 6.83 | 0.038 | 0.305 |
| O=C(/C=C/CNCC1COC1)Nc1cc2c(Nc3ccc(F)c(Cl)c3)ncnc2s1 | 3.93 | 62.2 | 0.01 | 0.022 |
| O=C(/C=C/CN1CCC2(CC1)OCCO2)Nc1cc2c(Nc3ccc(F)c(Cl)c3)ncnc2s1 | 0.55 | 6.55 | 0.002 | 0.02 |
| CCN(CC)C/C=C/C(=O)Nc1cc2c(Nc3ccc(F)c(Cl)c3)ncnc2s1 | 0.64 | 11.5 | 0.008 | 0.035 |

| Structure (SMILES) | IC50 [1] [µM] | IC50 [2] [µM] | IC50 [3] [µM] | IC50 [4] [µM] |
| --- | --- | --- | --- | --- |
| CN(C)CCCN(C)C/C=C/C(=O)Nc1cc2c(Nc3ccc(F)c(Cl)c3)ncnc2s1 | 3.41 | > 100 | 0.093 | 1.04 |
| O=C(/C=C/CNCc1ncccn1)Nc1cc2c(Nc3ccc(F)c(Cl)c3)ncnc2s1 | 3.24 | 53 | 0.008 | 0.055 |
| O=C(/C=C/CN1CC2(CCOCC2)C1)Nc1cc2c(Nc3ccc(F)c(Cl)c3)ncnc2s1 | 13.4 | 39.2 | 2.16 | 2.25 |
| CSC1CCN(C/C=C/C(=O)Nc2cc3c(Nc4ccc(F)c(Cl)c4)ncnc3s2)CC1 | 1.13 | 5.22 | 0.018 | 0.026 |
| COCCNC/C=C/C(=O)Nc1cc2c(Nc3ccc(F)c(Cl)c3)ncnc2s1 | 4.85 | 41.7 | 1.04 | 0.005 |
| COC(=O)CCCC(=O)Nc1cc2c(Nc3ccc(F)c(Cl)c3)ncnc2s1 | 27.8 | > 100 | > 10 | > 10 |
| CCCCC(=O)Nc1cc2c(Nc3ccc(F)c(Cl)c3)ncnc2s1 | 14.2 | > 100 | > 10 | > 10 |
| C=CCOC(=O)Nc1cc2c(Nc3ccc(F)c(Cl)c3)ncnc2s1 | 26.6 | 90.2 | – | – |
| O=C(CCl)Nc1cc2c(Nc3ccc(F)c(Cl)c3)ncnc2s1 | 3.58 | 3.01 | 0.04 | 0.71 |
| COC(=O)CC(=O)Nc1cc2c(Nc3ccc(F)c(Cl)c3)ncnc2s1 | 21.3 | > 100 | 5 | > 10 |
| CN(C)CCCNC/C=C/C(=O)Nc1cc2c(Nc3ccc(F)c(Cl)c3)ncnc2s1 | 25.4 | > 100 | 1.2 | 0.0007 |
| CN(C)CCN(C)CC(=O)Nc1cc2c(Nc3ccc(F)c(Cl)c3)ncnc2s1 | 1.59 | 17.6 | 4.29 | > 10 |
| CCN(CC)CCN(C)C/C=C/C(=O)Nc1cc2c(Nc3ccc(F)c(Cl)c3)ncnc2s1 | 4.22 | > 100 | 0.139 | 0.354 |
| CCC(CC)C(=O)Nc1cc2c(Nc3ccc(F)c(Cl)c3)ncnc2s1 | 22.8 | > 100 | > 10 | > 10 |
| CC(C)N1CCN(C/C=C/C(=O)Nc2cc3c(Nc4ccc(F)c(Cl)c4)ncnc3s2)CC1 | 4.78 | 20.7 | 0.034 | 0.002 |
| O=C(CN1CCN(CCO)CC1)Nc1cc2c(Nc3ccc(F)c(Cl)c3)ncnc2s1 | 10.2 | > 100 | 0.77 | > 10 |
| O=C(/C=C/CN1CCS(=O)(=O)CC1)Nc1cc2c(Nc3ccc(F)c(Cl)c3)ncnc2s1 | 8.72 | 75.4 | 0.029 | 0.007 |
| CS(=O)(=O)CCNC/C=C/C(=O)Nc1cc2c(Nc3ccc(F)c(Cl)c3)ncnc2s1 | 19.2 | 44.9 | 0.003 | 0.068 |
